This passage reports MIC and Ratio results from ChEMBL document CHEMBL1130931, “Synthesis and structure-activity relationships of 7-(2-aminoalkyl)morpholinoquinolones as anti-Helicobacter pylori agents” (1998).

Each structure is given as a SMILES string. Converted amounts (≈) assume the structure as drawn.

Format in all cases: functional
The test system of one test is Helicobacter pylori. Put plainly: In vitro minimum inhibitory concentration against growth of Helicobacter pylori ATCC 43504.
In test [1] the test system is Gerbillinae. Put plainly: The ratio of the number of Mongolian gerbils in which Helicobacter pylori was not detected to that of Mongolian gerbils tested (percent) was represented as clearance rate at 1 mg/kg dose.
Test [2] deals with Gerbillinae. Briefly: The ratio of the number of Mongolian gerbils in which Helicobacter pylori was not detected to that of Mongolian gerbils tested (percent) was represented as clearance rate at 0.3 mg/kg dose.
Test [3] deals with Gerbillinae. Put plainly: The ratio of the number of Mongolian gerbils in which Helicobacter pylori was not detected to that of Mongolian gerbils tested (percent) was represented as clearance rate.
In test [4] the test system is Gerbillinae. Briefly: The ratio of the number of Mongolian gerbils in which Helicobacter pylori was not detected to that of Mongolian gerbils tested (percent) was represented as clearance rate at 10 mg/kg dose.
The subject of test [5] is Gerbillinae. Briefly: The ratio of the number of Mongolian gerbils in which Helicobacter pylori was not detected to that of Mongolian gerbils tested (percent) was represented as clearance rate at 30 mg/kg dose.
Test [6] concerns Gerbillinae. Put plainly: The ratio of the number of Mongolian gerbils in which Helicobacter pylori was not detected to that of Mongolian gerbils tested (percent) was represented as clearance rate at 3 mg/kg dose.

As to `COc1c(N2CCO[C@H](CN(C)C)C2)c(F)cc2c(=O)c(C(=O)O)cn(C3CC3)c12`, inhibition of growth with Helicobacter pylori (MIC) required 0.39 µg/mL (≈ 0.93 µM). In the case of `COc1c(N2CCO[C@@H](CN(C)C)C2)c(F)cc2c(=O)c(C(=O)O)cn(C3CC3)c12`, the Ratio worked out at 100% in the test with Gerbillinae [1] and 0% with Gerbillinae [2]. Moreover, the lowest concentration to inhibit growth with Helicobacter pylori (MIC) was 0.012 µg/mL (≈ 0.0286 µM).

Consider `CNCC1CN(c2c(F)cc3c(=O)c(C(=O)O)cn(C4CC4)c3c2F)CCO1` (configuration not stated), for which the minimum inhibitory concentration (MIC) – broadly, the lowest concentration found to suppress growth – against Helicobacter pylori amounted to 0.05 µg/mL (≈ 0.127 µM). In the test with Helicobacter pylori, `CCNCC1CN(c2c(F)cc3c(=O)c(C(=O)O)cn(C4CC4)c3c2F)CCO1` (configuration not stated) came in with an MIC of 0.05 µg/mL (≈ 0.123 µM). In turn, `NCCC1CN(c2c(F)cc3c(=O)c(C(=O)O)cn(C4CC4)c3c2F)CCO1` (configuration not stated) returned an MIC in the test with Helicobacter pylori of 0.2 µg/mL (≈ 0.508 µM). In the test with Helicobacter pylori, `NCC1CN(c2c(F)cc3c(=O)c(C(=O)O)cn(C4CC4)c3c2F)CCO1` (configuration not stated) had an MIC of 0.05 µg/mL (≈ 0.132 µM). In addition, in the test on Gerbillinae [3], the Ratio turned out to be 80%.

On to `CN(C)CC1CN(c2c(F)cc3c(=O)c(C(=O)O)cn(C4CC4)c3c2F)CCO1` (configuration not stated), for which inhibition of growth against Helicobacter pylori (MIC) required 0.025 µg/mL (≈ 0.0614 µM). Compound `CC(=O)NCC1CN(c2c(F)cc3c(=O)c(C(=O)O)cn(C4CC4)c3c2F)CCO1` (configuration not stated) yielded an MIC against Helicobacter pylori of 0.78 µg/mL (≈ 1.85 µM). `CN(C)CC1CN(c2c(F)cc3c(=O)c(C(=O)O)cn(C4CC4)c3c2Cl)CCO1` (configuration not stated) yielded an MIC against Helicobacter pylori of 0.05 µg/mL (≈ 0.118 µM).

Turning to `COc1c(N2CCOC(CN(C)C)C2)c(F)cc2c(=O)c(C(=O)O)cn(C3CC3)c12` (configuration not stated), inhibition of growth against Helicobacter pylori (MIC) required 0.025 µg/mL (≈ 0.0596 µM). On the same count and under the same terms, the figure for `CCCNCC1CN(c2c(F)cc3c(=O)c(C(=O)O)cn(C4CC4)c3c2F)CCO1` (configuration not stated) is 0.39 µg/mL (≈ 0.925 µM); for `CCN(CC)CC1CN(c2c(F)cc3c(=O)c(C(=O)O)cn(C4CC4)c3c2F)CCO1` (configuration not stated) it is 0.2 µg/mL (≈ 0.459 µM); for `CN(C)CC1CN(c2cc3c(cc2F)c(=O)c(C(=O)O)cn3C2CC2)CCO1` (configuration not stated) it is 0.1 µg/mL (≈ 0.257 µM). Compound `CC1(C)S[C@@H]2[C@H](NC(=O)[C@H](N)c3ccc(O)cc3)C(=O)N2[C@H]1C(=O)O` [AMOXICILLIN] gave an MIC in the test with Helicobacter pylori of 0.025 µg/mL (≈ 0.0684 µM). In turn, `CC[C@H]1OC(=O)[C@H](C)[C@@H](O[C@H]2C[C@@](C)(OC)[C@@H](O)[C@H](C)O2)[C@H](C)[C@@H](O[C@@H]2O[C@H](C)C[C@H](N(C)C)[C@H]2O)[C@](C)(OC)C[C@@H](C)C(=O)[C@H](C)[C@@H](O)[C@]1(C)O` [CLARITHROMYCIN] registered an MIC against Helicobacter pylori of 0.025 µg/mL (≈ 0.0334 µM). The Ratio in the test on Gerbillinae [4] was found to be 0%; with Gerbillinae [5], 100%. As for `C[C@H]1COc2c(N3CCN(C)CC3)c(F)cc3c(=O)c(C(=O)O)cn1c23.C[C@H]1COc2c(N3CCN(C)CC3)c(F)cc3c(=O)c(C(=O)O)cn1c23.O` [LEVOFLOXACIN], the Ratio in the test on Gerbillinae [6] was 0%; in the test with Gerbillinae [4] it was 60%. Also, in the test with Helicobacter pylori, the MIC was found to be 0.2 µg/mL. For the compound `C[C@@H]1CN(c2c(F)c(N)c3c(=O)c(C(=O)O)cn(C4CC4)c3c2F)C[C@H](C)N1` [SPARFLOXACIN], in the test with Helicobacter pylori, inhibition of growth (MIC) required 0.2 µg/mL (≈ 0.51 µM). For the same compound, in the test on Gerbillinae [3], the Ratio is recorded as 0%. Regarding `NC1CCN(c2nc3c(cc2F)c(=O)c(C(=O)O)cn3-c2ccc(F)cc2F)C1` (configuration not stated) [TOSUFLOXACIN], in the test on Helicobacter pylori, the MIC came to 0.39 µg/mL (≈ 0.965 µM). Besides, in the test with Gerbillinae [3], the Ratio stood at 0%.
